# According to paper PMC6253949, “The Inhibitory Action of Kohamaic Acid A Derivatives on Mammalian DNA Polymerase β” (Molecules, 2008):
# Key:
# Human DNA polymerase δ = target: T1, Human DNA polymerase δ (Homo sapiens, UniProt P28340); assay: DNA polymerase assay, human pol δ; format: biochemical
# T1 construct: Human pols δ and ε were purified by the nuclear fractionation of human peripheral blood cancer cells (Molt-4); endogenous in cells; host or cells: Molt-4
# T1 sequence (P28340 1-1107): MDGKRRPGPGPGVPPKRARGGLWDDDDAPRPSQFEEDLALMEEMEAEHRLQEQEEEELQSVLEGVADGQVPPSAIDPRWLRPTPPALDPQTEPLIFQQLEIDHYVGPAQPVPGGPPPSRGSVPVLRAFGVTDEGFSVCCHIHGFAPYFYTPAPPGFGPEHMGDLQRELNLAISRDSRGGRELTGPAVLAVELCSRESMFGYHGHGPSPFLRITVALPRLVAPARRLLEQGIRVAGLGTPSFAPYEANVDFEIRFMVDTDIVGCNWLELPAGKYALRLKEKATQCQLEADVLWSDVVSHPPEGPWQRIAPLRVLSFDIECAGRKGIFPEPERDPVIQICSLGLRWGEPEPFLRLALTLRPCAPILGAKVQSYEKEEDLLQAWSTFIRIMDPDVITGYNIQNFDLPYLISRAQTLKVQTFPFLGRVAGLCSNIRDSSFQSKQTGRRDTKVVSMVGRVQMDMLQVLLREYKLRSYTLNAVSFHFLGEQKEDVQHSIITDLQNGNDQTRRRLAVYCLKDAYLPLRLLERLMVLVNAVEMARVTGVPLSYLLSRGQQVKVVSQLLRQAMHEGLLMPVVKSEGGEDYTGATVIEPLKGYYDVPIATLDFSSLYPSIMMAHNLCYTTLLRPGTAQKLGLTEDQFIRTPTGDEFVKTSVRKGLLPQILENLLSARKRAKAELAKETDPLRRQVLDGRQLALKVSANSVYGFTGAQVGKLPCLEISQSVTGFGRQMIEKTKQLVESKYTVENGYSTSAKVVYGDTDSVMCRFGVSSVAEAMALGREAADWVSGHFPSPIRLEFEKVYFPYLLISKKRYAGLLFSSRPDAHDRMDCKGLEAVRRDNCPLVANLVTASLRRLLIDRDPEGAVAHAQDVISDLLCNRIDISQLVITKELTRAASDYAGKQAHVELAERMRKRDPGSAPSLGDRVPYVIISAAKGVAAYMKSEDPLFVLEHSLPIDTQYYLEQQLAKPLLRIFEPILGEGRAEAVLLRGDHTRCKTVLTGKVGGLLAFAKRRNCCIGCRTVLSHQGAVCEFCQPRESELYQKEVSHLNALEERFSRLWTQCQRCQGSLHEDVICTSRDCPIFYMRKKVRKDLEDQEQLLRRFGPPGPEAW
# Text: (§1) Pol α was purified from calf thymus by immuno-affinity column chromatography as described by Tamai et al.. Recombinant rat pol β was purified from E. coli JMpβ5 as described by Date et al.. The human pol γ catalytic gene was cloned into pFastBac. Histidine-tagged enzyme was expressed using the BAC-TO-BAC HT Baculovirus Expression System according to the supplier's manual (LIFE TECHNOLOGIES, MD, USA) and purified using ProBoundresin (Invitrogen Japan, Tokyo, Japan). Human pols δ and ε were purified by the nuclear fractionation of human peripheral blood cancer cells (Molt-4) using the second subunit of pols δ and ε-conjugated affinity column chromatography, respectively. Recombinant human pols η and ι tagged with His6 at their C-terminal were expressed in SF9 insect cells using the baculovirus expression system, and were purified as described previously. A truncated form of pol κ (i.e., hDINB1DC) with 6 x His-tags attached at the C-terminal was overproduced using the BAC-to-BAC Baculovirus Expression System kit (GIBCO BRL, MD, USA) and purified as described previously. […]
# For pols, poly(dA)/oligo(dT)12-18 (A/T = 2/1) and dTTP were used as the DNA template-primer and nucleotide (i.e., dNTP) substrate, respectively. […] Activity without the inhibitor was considered 100%, and the remaining activity at each concentration of the inhibitor was determined relative to this value. […]
# HL-60 cells = assay: HL-60 cancer cell growth, MTT assay; format: cell-based, human; conditions: 50 μM, 24 hr
# Experimental: To investigate the effects of KA-A derivatives in cultured cells, we used a human cancer cell line, HL-60, human promyelocytic leukemia cells (IFO 050022), supplied by the Health Science Research Resources Bank (Osaka, Japan). The cells were routinely cultured in RPMI 1640 medium supplemented with 10% fetal bovine serum, 100 μg/mL streptomycin, 100 unit/mL penicillin, and 1.6 mg/mL NaHCO3. The cells were cultured at 37 °C in standard medium in a humidified atmosphere of 5% CO2-95% air. The rate of the cancer cell growth of the compound was investigated as follows: high concentrations (10 mM) of the compounds were dissolved in DMSO and stocked. Approximately 1 x 10^4 cells per well were inoculated in 96-well micro plates, and then the compound stock solution was diluted to various concentrations, and applied to each well. After incubation for 24 hr, the survival rate was determined by MTT (3-(4,5-dimethylthiazol-2-yl)-2,5-diphenyl tetrazolium bromide) assay.
# T4 Polynucleotide kinase = target: T2, T4 Polynucleotide kinase (Enterobacteria phage T4, UniProt P06855); assay: T4 polynucleotide kinase assay; format: biochemical
# T2 construct: purchased Takara (Kyoto, Japan)
# Text: as §1
# The primase activity of calf pol α, the activities of T7 RNA polymerase, T4 polynucleotide kinase and bovine DNase I were measured in standard assays according to the manufacturer's specifications as described by Tamiya-Koizumi et al., Nakayama et al., Soltis et al., and Lu and Sakaguchi, respectively.
# T2 sequence (P06855 whole entry): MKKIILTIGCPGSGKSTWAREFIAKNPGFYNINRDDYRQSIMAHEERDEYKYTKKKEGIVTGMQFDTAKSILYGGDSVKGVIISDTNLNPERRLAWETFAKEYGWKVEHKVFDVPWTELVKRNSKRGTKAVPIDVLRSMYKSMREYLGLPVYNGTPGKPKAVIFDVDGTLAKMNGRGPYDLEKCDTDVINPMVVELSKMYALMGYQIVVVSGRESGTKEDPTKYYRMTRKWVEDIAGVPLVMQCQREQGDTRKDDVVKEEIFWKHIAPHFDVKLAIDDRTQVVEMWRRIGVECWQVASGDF
smiles,measurement,setting,value
"CC1=CC[C@H]2C(C)(C)CCC[C@]2(C)[C@H]1CCCCCCCCCCCCCCCCC(=O)O (relative stereo) [compound 11, (1S*,4aS*,8aS*)-17-(1,4,4a,5,6,7,8,8a-octahydro-2,5,5,8a-tetramethylnaphthalen-1-yl)heptadecanoic acid]",IC50,Human DNA polymerase δ,4.89 ± 0.24 µM
same,"Growth inhibitory effect on HL-60 cells, rank among compounds tested",HL-60 cells,strongest growth inhibitory effect
same,IC50,T4 Polynucleotide kinase,> 200 µM
